Measured values reported in PubChem BioAssay AID1919014 (Molecular Pharmacology Branch, DTP, NCI, 2023).

System: NCI-H1341 complex spheroids, percent test/control
Assay: Anticancer human tumor NCI-H1341 cell line growth inhibition [AhR];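 also: spheroids exposed to agents for seven days before readout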
Details: for IC50: curve of first compound; for viability, T/C: stronger effect = lower value; active = viability on the fitted dose curve at most 10% of control; inactive = the rest
How it was run: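 Spheroids combined tumor cells with HUVEC endothelial cells and human MSCs as stroma. AhR antagonists were paired with standard or investigational drugs, each dosed in half-log steps down from near clinical Cmax, or from 10 microM where Cmax was unknown.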

[1] = second compound 0.1 µM, first compound 0.0316 µM
[2] = second compound 0.1 µM, first compound 0.1 µM
[3] = second compound 0.1 µM, first compound 0.316 µM
[4] = second compound 0.1 µM, first compound 1 µM
[5] = second compound 0.316 µM, first compound 0.0316 µM
[6] = second compound 0.316 µM, first compound 0.1 µM
[7] = second compound 0.316 µM, first compound 0.316 µM
[8] = second compound 0.316 µM, first compound 1 µM
[9] = second compound 1 µM, first compound 0.0316 µM
[10] = second compound 1 µM, first compound 0.1 µM
[11] = second compound 1 µM, first compound 0.316 µM
[12] = second compound 1 µM, first compound 1 µM
[13] = second compound 3.16 µM, first compound 0.0316 µM
[14] = second compound 3.16 µM, first compound 0.1 µM
[15] = second compound 3.16 µM, first compound 0.316 µM
[16] = second compound 3.16 µM, first compound 1 µM
[17] = second compound 10 µM, first compound 0.0316 µM
[18] = second compound 10 µM, first compound 0.1 µM
[19] = second compound 10 µM, first compound 0.316 µM
[20] = second compound 10 µM, first compound 1 µM
[21] = second compound 0.1 µM, first compound 3.16 µM
[22] = second compound 0.1 µM, first compound 10 µM
[23] = second compound 0.316 µM, first compound 3.16 µM
[24] = second compound 0.316 µM, first compound 10 µM
[25] = second compound 1 µM, first compound 3.16 µM
[26] = second compound 1 µM, first compound 10 µM
[27] = second compound 3.16 µM, first compound 3.16 µM
[28] = second compound 3.16 µM, first compound 10 µM
[29] = second compound 10 µM, first compound 3.16 µM
[30] = second compound 10 µM, first compound 10 µM
[31] = second compound 0.1 µM, first compound 0.00949 µM
[32] = second compound 0.1 µM, first compound 0.03 µM
[33] = second compound 0.1 µM, first compound 0.0949 µM
[34] = second compound 0.1 µM, first compound 0.3 µM
[35] = second compound 0.316 µM, first compound 0.00949 µM
[36] = second compound 0.316 µM, first compound 0.03 µM
[37] = second compound 0.316 µM, first compound 0.0949 µM
[38] = second compound 0.316 µM, first compound 0.3 µM
[39] = second compound 1 µM, first compound 0.00949 µM
[40] = second compound 1 µM, first compound 0.03 µM
[41] = second compound 1 µM, first compound 0.0949 µM
[42] = second compound 1 µM, first compound 0.3 µM
[43] = second compound 3.16 µM, first compound 0.00949 µM
[44] = second compound 3.16 µM, first compound 0.03 µM
[45] = second compound 3.16 µM, first compound 0.0949 µM
[46] = second compound 3.16 µM, first compound 0.3 µM
[47] = second compound 10 µM, first compound 0.00949 µM
[48] = second compound 10 µM, first compound 0.03 µM
[49] = second compound 10 µM, first compound 0.0949 µM
[50] = second compound 10 µM, first compound 0.3 µM

CC1COCCN1c1cc(-c2ccnn2C)c2ccnc(-c3ccn[nH]3)c2n1 (stereo not given) + Cc1ccccc1N=Nc1ccc(NC(=O)c2ccnn2C)c(C)c1
9.13 nM: IC50 (second compound 10 µM)
inactive: viability, T/C (second compound 0.1 µM, first compound 0.00316 µM) 98.2% | viability, T/C (second compound 0.1 µM, first compound 0.01 µM) 99.1% | viability, T/C [1] 74.2% | viability, T/C [2] 48.5% | viability, T/C [3] 38.3% | viability, T/C [4] 26.2% | viability, T/C (second compound 0.316 µM, first compound 0.00316 µM) 104% | viability, T/C (second compound 0.316 µM, first compound 0.01 µM) 102% | viability, T/C [5] 65.6% | viability, T/C [6] 39.3% | viability, T/C [7] 34.8% | viability, T/C [8] 29% | viability, T/C (second compound 1 µM, first compound 0.00316 µM) 82.6% | viability, T/C (second compound 1 µM, first compound 0.01 µM) 92% | viability, T/C [9] 70.8% | viability, T/C [10] 52.6% | viability, T/C [11] 34.3% | viability, T/C [12] 25.9% | viability, T/C (second compound 3.16 µM, first compound 0.00316 µM) 84% | viability, T/C (second compound 3.16 µM, first compound 0.01 µM) 72.7% | viability, T/C [13] 55.1% | viability, T/C [14] 44.4% | viability, T/C [15] 40.8% | viability, T/C [16] 27.6% | viability, T/C (second compound 10 µM, first compound 0.00316 µM) 53.8% | viability, T/C (second compound 10 µM, first compound 0.01 µM) 51% | viability, T/C [17] 44.3% | viability, T/C [18] 37.1% | viability, T/C [19] 30.7% | viability, T/C [20] 25.6%
60.6 nM: IC50 (second compound 0.316 µM)
113 nM: IC50 (second compound 1 µM)
97.6 nM: IC50 (second compound 0.1 µM)
67.5 nM: IC50 (second compound 3.16 µM)

CC1COCCN1c1cc(C2(S(C)(=N)=O)CC2)nc(-c2ccnc3[nH]ccc23)n1 (stereo not given) + Cc1ccccc1N=Nc1ccc(NC(=O)c2ccnn2C)c(C)c1
3150 nM: IC50 (second compound 1 µM)
inactive: viability, T/C [1] 92.7% | viability, T/C [2] 92.3% | viability, T/C [3] 94.4% | viability, T/C [4] 57.6% | viability, T/C [21] 45.2% | viability, T/C [22] 30.3% | viability, T/C [5] 77.1% | viability, T/C [6] 108% | viability, T/C [7] 89% | viability, T/C [8] 81.2% | viability, T/C [23] 52.2% | viability, T/C [24] 31.1% | viability, T/C [9] 88.2% | viability, T/C [10] 114% | viability, T/C [11] 83.2% | viability, T/C [12] 84.3% | viability, T/C [25] 48.6% | viability, T/C [26] 29.4% | viability, T/C [13] 77.9% | viability, T/C [14] 90.2% | viability, T/C [15] 69.2% | viability, T/C [16] 63.4% | viability, T/C [27] 43.6% | viability, T/C [28] 26% | viability, T/C [17] 55.9% | viability, T/C [18] 57.5% | viability, T/C [19] 55.5% | viability, T/C [20] 47.6% | viability, T/C [29] 34.5% | viability, T/C [30] 25.4%
3530 nM: IC50 (second compound 0.316 µM)
2110 nM: IC50 (second compound 3.16 µM)
1600 nM: IC50 (second compound 0.1 µM)
721 nM: IC50 (second compound 10 µM)

COc1ccc([C@@H](O)c2cc(-c3ncnc4cc(N5CCOCC5)ccc34)c(F)cc2Cl)nn1 + Cc1ccccc1N=Nc1ccc(NC(=O)c2ccnn2C)c(C)c1
461 nM: IC50 (second compound 3.16 µM)
903 nM: IC50 (second compound 0.1 µM)
< 31.6 nM: IC50 (second compound 10 µM)
791 nM: IC50 (second compound 0.316 µM)
631 nM: IC50 (second compound 1 µM)
inactive: viability, T/C [1] 98.3% | viability, T/C [2] 91.6% | viability, T/C [3] 70.8% | viability, T/C [4] 51.5% | viability, T/C [21] 19.3% | viability, T/C [5] 87.2% | viability, T/C [6] 68.9% | viability, T/C [7] 70.6% | viability, T/C [8] 46.4% | viability, T/C [23] 19.9% | viability, T/C [9] 75.3% | viability, T/C [10] 67.9% | viability, T/C [11] 62.8% | viability, T/C [12] 42% | viability, T/C [25] 21.6% | viability, T/C [13] 73% | viability, T/C [14] 59.9% | viability, T/C [15] 58.7% | viability, T/C [16] 38.5% | viability, T/C [27] 18% | viability, T/C [17] 47.2% | viability, T/C [18] 51.8% | viability, T/C [19] 39.3% | viability, T/C [20] 29.2% | viability, T/C [29] 14.3%
active: viability, T/C [22] 8.09% | viability, T/C [24] 8.42% | viability, T/C [26] 8.86% | viability, T/C [28] 5.82% | viability, T/C [30] 7.84%

Nc1ncn(C2CC(O)C(CO)S2)c(=O)n1 (stereo not given) + Cc1ccccc1N=Nc1ccc(NC(=O)c2ccnn2C)c(C)c1
236 nM: IC50 (second compound 3.16 µM)
17.4 nM: IC50 (second compound 10 µM)
inactive: viability, T/C (second compound 0.1 µM, first compound 0.000949 µM) 71.8% | viability, T/C (second compound 0.1 µM, first compound 0.003 µM) 84.3% | viability, T/C [31] 83.3% | viability, T/C [32] 65% | viability, T/C [33] 61.3% | viability, T/C [34] 40% | viability, T/C (second compound 0.316 µM, first compound 0.000949 µM) 78.8% | viability, T/C (second compound 0.316 µM, first compound 0.003 µM) 95% | viability, T/C [35] 93.2% | viability, T/C [36] 87.7% | viability, T/C [37] 78% | viability, T/C [38] 48.1% | viability, T/C (second compound 1 µM, first compound 0.000949 µM) 78.2% | viability, T/C (second compound 1 µM, first compound 0.003 µM) 85.8% | viability, T/C [39] 84.9% | viability, T/C [40] 81.3% | viability, T/C [41] 74.1% | viability, T/C [42] 46.8% | viability, T/C (second compound 3.16 µM, first compound 0.000949 µM) 88% | viability, T/C (second compound 3.16 µM, first compound 0.003 µM) 62.4% | viability, T/C [43] 66% | viability, T/C [44] 69.6% | viability, T/C [45] 62.6% | viability, T/C [46] 43.8% | viability, T/C (second compound 10 µM, first compound 0.000949 µM) 51.4% | viability, T/C (second compound 10 µM, first compound 0.003 µM) 54.6% | viability, T/C [47] 53% | viability, T/C [48] 45.8% | viability, T/C [49] 45.2% | viability, T/C [50] 34.9%
263 nM: IC50 (second compound 1 µM)
165 nM: IC50 (second compound 0.1 µM)
281 nM: IC50 (second compound 0.316 µM)

O=C(C=Cn1cnc(-c2cc(C(F)(F)F)cc(C(F)(F)F)c2)n1)NNc1cnccn1 + Cc1ccccc1N=Nc1ccc(NC(=O)c2ccnn2C)c(C)c1
active: viability, T/C (second compound 0.1 µM, first compound 0.949 µM) 8.66% | viability, T/C (second compound 0.1 µM, first compound 3 µM) 7.84% | viability, T/C (second compound 0.316 µM, first compound 0.949 µM) 9.67% | viability, T/C (second compound 0.316 µM, first compound 3 µM) 6.9% | viability, T/C (second compound 1 µM, first compound 0.949 µM) 8.51% | viability, T/C (second compound 1 µM, first compound 3 µM) 8.16% | viability, T/C (second compound 3.16 µM, first compound 0.949 µM) 11.4% | viability, T/C (second compound 3.16 µM, first compound 3 µM) 6.99% | viability, T/C (second compound 10 µM, first compound 3 µM) 6.32%
53.6 nM: IC50 (second compound 1 µM)
< 9.49 nM: IC50 (second compound 3.16 µM) | IC50 (second compound 10 µM)
49.7 nM: IC50 (second compound 0.316 µM)
inactive: viability, T/C [31] 85.4% | viability, T/C [32] 63.4% | viability, T/C [33] 35.2% | viability, T/C [34] 12.9% | viability, T/C [35] 69.5% | viability, T/C [36] 59% | viability, T/C [37] 38.3% | viability, T/C [38] 15.2% | viability, T/C [39] 67.7% | viability, T/C [40] 66.7% | viability, T/C [41] 34.5% | viability, T/C [42] 15.4% | viability, T/C [43] 47.9% | viability, T/C [44] 40.7% | viability, T/C [45] 30.6% | viability, T/C [46] 13.2% | viability, T/C [47] 40.7% | viability, T/C [48] 35% | viability, T/C [49] 24.2% | viability, T/C [50] 15.6% | viability, T/C (second compound 10 µM, first compound 0.949 µM) 10.8%
51.3 nM: IC50 (second compound 0.1 µM)
